US8716287B2, “Pharmaceutical compounds” (Sentinel Oncology Limited, priority 2010, dated 2014)
“Also recorded” adds a separate entry of the source. Structures can show the parent of a compound that is named as a salt. Where two headings read alike, the source gives them in different places.

Columns and labels:
Chk-1 kinase = Chk-1 kinase (Homo sapiens (Human), UniProt O14757); assay: Chk-1 kinase inhibiting activity (33P-ATP filter assay, CHKtide substrate); type: biochemical
Protocol: The compounds of the invention were tested for activity against Chk-1 kinase using the materials and protocols set out below.
Base Reaction buffer: 20 mM Hepes (pH 7.5), 10 mM MgCl2, 1 mM EGTA, 0.02% Brij35, 0.02 mg/ml BSA, 0.1 mM Na3VO4, 2 mM DTT, 1% DMSO
*Required cofactors are added individually to each kinase reaction
(i) Prepare indicated substrate in freshly prepared Base Reaction Buffer
(ii) Deliver any required cofactors to the substrate solution above
(iii) Deliver indicated kinase into the substrate solution and gently mix
(iv) Deliver compounds in DMSO into the kinase reaction mixture
(v) Deliver ^33P-ATP (specific activity 0.01 μCi/μl final) into the reaction mixture to initiate the reaction.
(vi) Incubate kinase reaction for 120 minutes at room temperature
(vii) Reactions are spotted onto P81 ion exchange paper (Whatman #3698-915)
(viii) Wash filters extensively in 0.1% phosphoric acid.
(ix) Dry filters and measure counts in scintillation counter
Recombinant full length construct, N-terminal GST tagged, purified from insect cells.
No special measures were taken to activate this kinase.
Final concentration in assay=0.5 nM
Peptide sequence: [[…]]
Final concentration in assay=20 μM
No additional cofactors are added to the reaction mixture

HT29 cells = assay: Sensitisation of HT29 cells to SN38 (Alamar blue cell growth); type: cell-based, human; settings: for Cell potentiation factor: SN38 sensitisation assay in HT-29 cells, compound at 3 μM; for fold shift in the IC50 value of SN38: HT29 cells
Protocol: Studies were carried out to test the sensitising effect of compounds of the invention on the ability of the DNA damaging compound 7-ethyl-10-hydroxycamptothecin (SN38), an active metabolite of the anti-cancer drug irinotecan, to inhibit cell growth in HT29 cells.
The following protocol was used:
(a) HT29 cells were seeded in 96-well plates at a concentration of 3000 cells per well and allowed to adhere overnight prior to addition of compound or vehicle control.
(b) SN38 was prepared from a 10 mM DMSO stock to give a final concentration range of 1 μM, 300 nM, 100 nM, 30 nM, 10 nM, 3 nM, 1 nM, and vehicle control.
(c) Test compounds were prepared from 10 mM DMSO stocks to typically give a final concentration range of 3 μM, 1 μM, 0.3 μM. 0.1 μM, 0.03 μM and vehicle control. The final DMSO content was 0.4%.
(d) Test compounds were incubated with the cells for 72 h at 37° C. 5% CO2 in a humidified atmosphere.
(e) Alamar blue 10% (v/v) was then added and incubated for a further 6 h, and fluorescent product detected using the BMG FLUOstar plate reader.
(f) Data were analysed using a 4-parameter logistic equation in GraphPad Prism.
Sensitisation is determined by the enhancement in IC50 of SN38 by the addition of the Chk-1 kinase inhibitor. In the protocol described above, the IC50 for SN-38 is determined the presence of varying doses of the Chk-1 inhibitor. The fold shift represents a decrease in IC50 for SN-38 at a dose of Chk-1 inhibitor that has no effect by itself.

[1] = comparative tests, Example 70, read-out: Chk-1 IC50
[2] = Chk-1 kinase, Table 3, read-out: IC50
[3] = ranges given, read-out: IC50 values against Chk-1 kinase

Chain of Chk-1 kinase (O14757 whole entry): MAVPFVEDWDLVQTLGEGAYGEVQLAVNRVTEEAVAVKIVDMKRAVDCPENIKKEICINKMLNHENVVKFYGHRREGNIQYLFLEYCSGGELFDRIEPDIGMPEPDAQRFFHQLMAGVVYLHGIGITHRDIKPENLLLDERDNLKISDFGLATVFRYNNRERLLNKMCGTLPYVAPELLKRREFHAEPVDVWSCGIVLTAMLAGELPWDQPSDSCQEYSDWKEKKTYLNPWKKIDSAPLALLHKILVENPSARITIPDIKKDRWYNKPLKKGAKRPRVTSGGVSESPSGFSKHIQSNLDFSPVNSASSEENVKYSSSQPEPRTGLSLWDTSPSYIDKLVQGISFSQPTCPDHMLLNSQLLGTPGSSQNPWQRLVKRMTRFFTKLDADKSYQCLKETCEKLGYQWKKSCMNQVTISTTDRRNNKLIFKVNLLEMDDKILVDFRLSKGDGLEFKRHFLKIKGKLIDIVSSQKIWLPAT

| Compound | IC50 (Chk-1 kinase; [2]) [nM] | IC50 (Chk-1 kinase; [3]) [nM] | also measured |
| --- | --- | --- | --- |
| COc1cc(CNCc2ccccc2)ccc1NC(=O)Nc1cnc(C)cn1 [Compound 338, reference compound] |  |  | IC50 (Chk-1 kinase; [1]): 99 nM; Cell potentiation factor (HT29 cells): 5 fold |
| N#Cc1cnc(NC(=O)Nc2ccc(CCNCc3ccccc3)cc2)cn1 [Example 1, 1-[4-(2-Benzylamino-ethyl)-phenyl]-3-(5-cyano-pyrazin-2-yl)-urea] | 200 | 100 to 1000 | IC50 (Chk-1 kinase; [1]): 99 nM; fold improvement in potency against Chk-1 enzyme (Chk-1 kinase; relative to Example 30 (alkylene chain 1 to 2 carbon atoms)): ~3 fold; fold shift in the IC50 value of SN38 (HT29 cells; test compound at 3 μM): three; Cell potentiation factor (HT29 cells): 4 fold |
| N#Cc1cnc(NC(=O)Nc2ccc(CCNCc3ccc(F)cc3)cc2)cn1 [Example 2, 1-(5-Cyano-pyrazin-2-yl)-3-{4-[2-(4-fluoro-benzylamino)-ethyl]-phenyl}-urea] | 44 | 10 to 100 | fold shift in the IC50 value of SN38 (HT29 cells; test compound at 3 μM): three |
| N#Cc1cnc(NC(=O)Nc2ccc(CCNCc3ccc(F)cc3F)cc2)cn1 [Example 3, 1-(5-Cyano-pyrazin-2-yl)-3-{4-[2-(2,4-difluoro-benzylamino)-ethyl]-phenyl}-urea] | 179 | 100 to 1000 | fold shift in the IC50 value of SN38 (HT29 cells; test compound at 3 μM): three |
| N#Cc1cnc(NC(=O)Nc2ccc(CCNCc3ccc(F)cc3F)c(Cl)c2)cn1 [Example 5, 1-{3-Chloro-4-[2-(2,4-difluoro-benzylamino)-ethyl]-phenyl}-3-(5-cyano-pyrazin-2-yl)-urea] | 38 | 10 to 100 | fold shift in the IC50 value of SN38 (HT29 cells; test compound at 3 μM): three |
| N#Cc1cnc(NC(=O)Nc2ccc(OCCNCc3ccc(F)cc3F)c(Cl)c2)cn1 [Example 6, 1-{3-Chloro-4-[2-(2,4-difluoro-benzylamino)-ethoxy]-phenyl}-3-(5-cyano-pyrazin-2-yl)-urea] | 26 | 10 to 100 | fold shift in the IC50 value of SN38 (HT29 cells; test compound at 3 μM): three |
| N#Cc1cnc(NC(=O)Nc2ccc(CCNCCc3ccc(F)cc3)c(Cl)c2)cn1 [Example 7, 1-(3-Chloro-4-(2-(4-fluorophenethylamino)ethyl)phenyl)-3-(5-cyanopyrazin-2-yl)urea] | 16 | 10 to 100 | fold shift in the IC50 value of SN38 (HT29 cells; test compound at 1 μM): two |
| N#Cc1cnc(NC(=O)Nc2ccc(CCNCc3ccc(Cl)cc3)c(Cl)c2)cn1 [Example 8, 1-{3-Chloro-4-[2-(4-chloro-benzylamino)-ethyl]-phenyl}-3-(5-cyano-pyrazin-2-yl)-urea] | 11 | 10 to 100 | fold shift in the IC50 value of SN38 (HT29 cells; test compound at 3 μM): three; also recorded: greater than ten |
| C[C@@H](NCCc1ccc(NC(=O)Nc2cnc(C#N)cn2)cc1Cl)c1ccc(F)cc1 [Example 24, 1-(3-Chloro-4-{2-[(R)-1-(4-fluoro-phenyl)-ethylamino]-ethyl}-phenyl)-3-(5-cyano-pyrazin-2-yl)-urea hydrochloride] | 13 | 10 to 100 |  |
| N#Cc1cnc(NC(=O)Nc2ccc(CCNCCc3ccc(F)cc3F)c(Cl)c2)cn1 [Example 28, 1-(3-Chloro-4-{2-[2-(2,4-difluoro-phenyl)-ethylamino]-ethyl}-phenyl)-3-(5-cyano-pyrazin-2-yl)-urea] | 47 | 10 to 100 |  |
| COc1cc(CCNCc2ccc(F)cc2F)ccc1NC(=O)Nc1cnc(C#N)cn1 [Example 30, 1-(5-Cyano-pyrazin-2-yl)-3-{4-[2-(2,4-difluoro-benzylamino)-ethyl]-2-methoxy-phenyl}-urea] | 6.4 | < 10 |  |
| COc1cc(CCNCc2ccccc2)ccc1NC(=O)Nc1cnc(C)cn1 [Example 32, 1-[4-(2-Benzylamino-ethyl)-2-methoxy-phenyl]-3-(5-methyl-pyrazin-2-yl)-urea hydrochloride] | 27 |  | IC50 (Chk-1 kinase; [1]): 27 nM; fold improvement in potency against Chk-1 (Chk-1 kinase; relative to Compound 338 of WO02/070494 (alkylene chain 1 to 2 carbon atoms)): ~3 fold |
| Cc1cc(NC(=O)Nc2cnc(C#N)cn2)ccc1CCNCc1ccc(F)cc1 [Example 36, 1-(5-Cyano-pyrazin-2-yl)-3-{4-[2-(4-fluoro-benzylamino)-ethyl]-3-methyl-phenyl}-urea hydrochloride] | 10 |  |  |
| COc1cc(CCN[C@H](C)c2ccc(F)cc2)ccc1NC(=O)Nc1cnc(C#N)cn1 [Example 43, 1-(5-Cyano-pyrazin-2-yl)-3-(4-{2-[(R)-1-(4-fluoro-phenyl)-ethylamino]-ethyl}-2-methoxy-phenyl)-urea] | 3.3 | < 10 |  |
| CCOc1cc(CCNCc2ccc(F)cc2)c(Cl)cc1NC(=O)Nc1cnc(C#N)cn1 [Example 45, 1-{5-Chloro-2-ethoxy-4-[2-(4-fluoro-benzylamino)-ethyl]-phenyl}-3-(5-cyano-pyrazin-2-yl)-urea hydrochloride] | 1.2 | < 10 |  |
| CC(C)Oc1cc(CCNCc2ccc(F)cc2)c(Cl)cc1NC(=O)Nc1cnc(C#N)cn1 [Example 46, 1-{5-Chloro-4-[2-(4-fluoro-benzylamino)-ethyl]-2-isopropoxy-phenyl}-3-(5-cyano-pyrazin-2-yl)-urea hydrochloride] | 0.32 | < 10 |  |
| COc1cc(OCCNCc2ccc(F)cc2)c(Cl)cc1NC(=O)Nc1cnc(C#N)cn1 [Example 47, 1-{5-Chloro-4-[2-(4-fluoro-benzylamino)-ethoxy]-2-methoxy-phenyl}-3-(5-cyano-pyrazin-2-yl)-urea hydrochloride] | 8.4 | < 10 |  |
| COc1cc(CCN[C@@H](C)c2ccc(N3CCNCC3)cc2)c(Cl)cc1NC(=O)Nc1cnc(C#N)cn1 [Example 52, 1-(5-Chloro-2-methoxy-4-{2-[(S)-1-(4-piperazin-1-yl-phenyl)-ethylamino]-ethyl}-phenyl)-3-(5-cyano-pyrazin-2-yl)-urea hydrochloride] | 0.13 | < 10 |  |
| COc1cc(CNCc2ccccc2)c(Cl)cc1NC(=O)Nc1cnc(C#N)cn1 [Example 56, 1-[4-(Benzylamino-methyl)-5-chloro-2-methoxy-phenyl]-3-(5-cyano-pyrazin-2-yl)-urea hydrochloride] | 2.8 | < 10 |  |
| COc1cc(CNCc2cccc(F)c2)ccc1NC(=O)Nc1cnc(C#N)cn1 [Example 58, 1-(5-Cyano-pyrazin-2-yl)-3-{4-[(3-fluoro-benzylamino)-methyl]-2-methoxy-phenyl}-urea hydrochloride] | 21 |  |  |
| COc1cc(CNCc2ccccc2F)ccc1NC(=O)Nc1cnc(C#N)cn1 [Example 59, 1-(5-Cyano-pyrazin-2-yl)-3-{4-[(2-fluoro-benzylamino)-methyl]-2-methoxy-phenyl}-urea hydrochloride] | 13 |  |  |
| COc1cccc(CNCc2ccc(NC(=O)Nc3cnc(C#N)cn3)c(OC)c2)c1 [Example 61, 1-(5-Cyano-pyrazin-2-yl)-3-{2-methoxy-4-[(3-methoxy-benzylamino)-methyl]-phenyl}-urea hydrochloride] | 7.5 | < 10 |  |
| COc1ccccc1CNCc1ccc(NC(=O)Nc2cnc(C#N)cn2)c(OC)c1 [Example 62, 1-(5-Cyano-pyrazin-2-yl)-3-{2-methoxy-4-[(2-methoxy-benzylamino)-methyl]-phenyl}-urea] | 7.8 | < 10 |  |
| COc1cc(CNCc2ccc(F)cc2)c(Cl)cc1NC(=O)Nc1cnc(C#N)cn1 [Example 63, 1-{5-Chloro-4-[(4-fluoro-benzylamino)-methyl]-2-methoxy-phenyl}-3-(5-cyano-pyrazin-2-yl)-urea hydrochloride] | 9.8 | < 10 |  |
| COc1cc(CCNCc2ccc(N3CCNCC3)cc2)c(Cl)cc1NC(=O)Nc1cnc(C#N)cn1 [Example 64, 1-{5-Chloro-2-methoxy-4-[2-(4-piperazin-1-yl-benzylamino)-ethyl]-phenyl}-3-(5-cyano-pyrazin-2-yl)-urea hydrochloride] | 0.03 | < 10 |  |
| COc1cccc([C@H](C)NCCc2cc(OC)c(NC(=O)Nc3cnc(C#N)cn3)cc2Cl)c1 [Example 65, 1-(5-Chloro-2-methoxy-4-{2-[(S)-1-(3-methoxy-phenyl)-ethylamino]-ethyl}-phenyl)-3-(5-cyano-pyrazin-2-yl)-urea hydrochloride] | 0.73 | < 10 |  |
